Legend:
Assay type in all cases: cell-based
[1] = tested on: CCRF-CEM; settings: Leukemia; 10^−5 molar; 48 hours; SRB
[2] = tested on: HL-60(TB); settings: Leukemia; 10^−5 molar; 48 hours; SRB
[3] = tested on: K-562; settings: Leukemia; 10^−5 molar; 48 hours; SRB
[4] = tested on: MOLT-4; settings: Leukemia; 10^−5 molar; 48 hours; SRB
[5] = tested on: RPMI-8226; settings: Leukemia; 10^−5 molar; 48 hours; SRB
[6] = tested on: SR; settings: Leukemia; 10^−5 molar; 48 hours; SRB
[7] = tested on: A549/ATCC; settings: Non-small cell lung cancer; 10^−5 molar; 48 hours; SRB
[8] = tested on: NCI-H23; settings: Non-small cell lung cancer; 10^−5 molar; 48 hours; SRB
[9] = tested on: NCI-H460; settings: Non-small cell lung cancer; 10^−5 molar; 48 hours; SRB
[10] = tested on: NCI-H522; settings: Non-small cell lung cancer; 10^−5 molar; 48 hours; SRB
[11] = tested on: COLO 205; settings: Colon cancer; 10^−5 molar; 48 hours; SRB
[12] = tested on: HCT-15; settings: Colon cancer; 10^−5 molar; 48 hours; SRB
[13] = tested on: HT29; settings: Colon cancer; 10^−5 molar; 48 hours; SRB
[14] = tested on: SW-620; settings: Colon cancer; 10^−5 molar; 48 hours; SRB
[15] = tested on: SF-295; settings: CNS cancer; 10^−5 molar; 48 hours; SRB
[16] = tested on: SNB-19; settings: CNS cancer; 10^−5 molar; 48 hours; SRB
[17] = tested on: SNB-75; settings: CNS cancer; 10^−5 molar; 48 hours; SRB
[18] = tested on: LOX IMVI; settings: Melanoma; 10^−5 molar; 48 hours; SRB
[19] = tested on: MALME-3M; settings: Melanoma; 10^−5 molar; 48 hours; SRB
[20] = tested on: M14; settings: Melanoma; 10^−5 molar; 48 hours; SRB
[21] = tested on: MDA-MB-435; settings: Melanoma; 10^−5 molar; 48 hours; SRB
[22] = tested on: SK-MEL-28; settings: Melanoma; 10^−5 molar; 48 hours; SRB
[23] = tested on: UACC-62; settings: Melanoma; 10^−5 molar; 48 hours; SRB
[24] = tested on: OVCAR-5; settings: Ovarian cancer; 10^−5 molar; 48 hours; SRB
[25] = tested on: OVCAR-8; settings: Ovarian cancer; 10^−5 molar; 48 hours; SRB
[26] = tested on: 786-0; settings: Renal cancer; 10^−5 molar; 48 hours; SRB
[27] = tested on: A498; settings: Renal cancer; 10^−5 molar; 48 hours; SRB
[28] = tested on: RXF 393; settings: Renal cancer; 10^−5 molar; 48 hours; SRB
[29] = tested on: SN12C; settings: Renal cancer; 10^−5 molar; 48 hours; SRB
[30] = tested on: TK-10; settings: Renal cancer; 10^−5 molar; 48 hours; SRB
[31] = tested on: UO-31; settings: Renal cancer; 10^−5 molar; 48 hours; SRB
[32] = tested on: PC-3; settings: Prostate cancer; 10^−5 molar; 48 hours; SRB
[33] = tested on: DU-145; settings: Prostate cancer; 10^−5 molar; 48 hours; SRB
[34] = tested on: MCF7; settings: Breast cancer; 10^−5 molar; 48 hours; SRB
[35] = tested on: HS 578T; settings: Breast cancer; 10^−5 molar; 48 hours; SRB
[36] = tested on: BT-549; settings: Breast cancer; 10^−5 molar; 48 hours; SRB
[37] = tested on: T-47D; settings: Breast cancer; 10^−5 molar; 48 hours; SRB
[38] = tested on: MDA-MB-486; settings: Breast cancer; 10^−5 molar; 48 hours; SRB
[39] = tested on: 60 cancer cell lines; test: NCI 60-cell screen, SRB, whole panel (mean, delta, range); settings: 10^−5 molar, 48 hours, SRB; for Growth percent, Delta: delta over the cell panel; for Growth percent, Mean: mean over the cell panel; for Growth percent, Range: range over the cell panel

## O=c1c2cc(Cl)ccc2sc2c(NCCO)nc3ccccc3c12 [Compound N9, 10-Chloro-6-(2-ethanolamino)-12H-thiochromeno[2,3-c]quinolin-12-one]
[1]
  Growth percent CCRF-CEM: 81.07%
[2]
  Growth percent HL-60(TB): 104.58%
[3]
  Growth percent K-562: 68.23%
[4]
  Growth percent MOLT-4: 78.76%
[5]
  Growth percent RPMI-8226: 83.81%
[6]
  Growth percent SR: 60.44%
[7]
  Growth percent A549/ATCC: 80.72%
[8]
  Growth percent NCI-H23: 86.06%
[9]
  Growth percent NCI-H460: 100.97%
[10]
  Growth percent NCI-H522: 76.94%
[11]
  Growth percent COLO 205: 99.13%
[12]
  Growth percent HCT-15: 78.61%
[13]
  Growth percent HT29: 87.36%
[14]
  Growth percent SW-620: 97.18%
[15]
  Growth percent SF-295: 92.50%
[16]
  Growth percent SNB-19: 90.96%
[17]
  Growth percent SNB-75: 90.05%
[18]
  Growth percent LOX IMVI: 86.96%
[19]
  Growth percent MALME-3M: 104.86%
[20]
  Growth percent M14: 107.09%
[21]
  Growth percent MDA-MB-435: 94.98%
[22]
  Growth percent SK-MEL-28: 100.76%
[23]
  Growth percent UACC-62: 76.52%
[24]
  Growth percent OVCAR-5: 101.56%
[25]
  Growth percent OVCAR-8: 78.13%
[26]
  Growth percent 786-0: 104.43%
[27]
  Growth percent A498: 65.78%
[28]
  Growth percent RXF 393: 92.81%
[29]
  Growth percent SN12C: 92.52%
[30]
  Growth percent TK-10: 78.14%
[31]
  Growth percent UO-31: 51.97%
[32]
  Growth percent PC-3: 71.70%
[33]
  Growth percent DU-145: 102.77%
[34]
  Growth percent MCF7 (Table 2: MCF): 29.66%
[35]
  Growth percent HS 578T: 83.24%
[36]
  Growth percent BT-549: 131.62%
[37]
  Growth percent T-47D: 74.45%
[38]
  Growth percent MDA-MB-486: 39.59%
[39]
  Growth percent, Delta: 56.67%
  Growth percent, Mean: 86.33%
  Growth percent, Range: 101.96%

## CC(C)CC(C)Nc1nc2ccccc2c2c(=O)c3cc(Cl)ccc3sc12 (stereo not shown) [Compound N13, 10-Chloro-6-((4-methylpentan-2-yl)amino)-12H-thiochromeno[2,3-c]quinolin-12-one]
[1]
  Growth percent CCRF-CEM: 98.57%
[2]
  Growth percent HL-60(TB): 103.96%
[3]
  Growth percent K-562: 106.64%
[4]
  Growth percent MOLT-4: 93.68%
[5]
  Growth percent RPMI-8226: 97.78%
[6]
  Growth percent SR: 97.29%
[7]
  Growth percent A549/ATCC: 101.98%
[8]
  Growth percent NCI-H23: 95.10%
[9]
  Growth percent NCI-H460: 95.17%
[10]
  Growth percent NCI-H522: 102.30%
[11]
  Growth percent COLO 205: 93.45%
[12]
  Growth percent HCT-15: 96.97%
[13]
  Growth percent HT29: 121.02%
[14]
  Growth percent SW-620: 92.80%
[15]
  Growth percent SF-295: 95.92%
[16]
  Growth percent SNB-19: 106.79%
[17]
  Growth percent SNB-75: 85.02%
[18]
  Growth percent LOX IMVI: 98.90%
[19]
  Growth percent MALME-3M: 95.93%
[20]
  Growth percent M14: 94.27%
[21]
  Growth percent MDA-MB-435: 108.08%
[22]
  Growth percent SK-MEL-28: 106.87%
[23]
  Growth percent UACC-62: 96.09%
[24]
  Growth percent OVCAR-5: 101.36%
[25]
  Growth percent OVCAR-8: 92.79%
[26]
  Growth percent 786-0: 99.74%
[27]
  Growth percent A498: 75.01%
[28]
  Growth percent RXF 393: 98.67%
[29]
  Growth percent SN12C: 95.14%
[30]
  Growth percent TK-10: 123.23%
[31]
  Growth percent UO-31: 78.64%
[32]
  Growth percent PC-3: 86.33%
[33]
  Growth percent DU-145: 113.48%
[34]
  Growth percent MCF7 (Table 2: MCF): 73.82%
[35]
  Growth percent HS 578T: 89.33%
[36]
  Growth percent BT-549: 103.61%
[37]
  Growth percent T-47D: 73.76%
[38]
  Growth percent MDA-MB-486: 96.02%
[39]
  Growth percent, Delta: 22.57%
  Growth percent, Mean: 96.33%
  Growth percent, Range: 49.47%

Source: patent US8927717B1, “Thiochromeno[2,3-c]quinolin-12-one derivatives, preparation method and application thereof” (National Defense Medical Center, priority 2014, dated 2015)
